Results from PubChem BioAssay (NCI).
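Step 1: Grow cells in 96-well plates. Step 2: Expose to compound for 48 hours at 5 concentrations. Step 3: Interpolate endpoints linearly; if unreached, use highest concentration. GI50 marks 50% less growth. At the TGI there is no net growth.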

Tests used:
Assay in all cases: growth of human tumour cells (NCI), 48 h
DU-145 prostate = test system: DU-145 prostate
HOP-92 NSCLC = test system: HOP-92 NSCLC
NCI/ADR-RES ovarian = test system: NCI/ADR-RES ovarian
OVCAR-4 ovarian = test system: OVCAR-4 ovarian
OVCAR-5 ovarian = test system: OVCAR-5 ovarian
SK-MEL-2 melanoma = test system: SK-MEL-2 melanoma
SK-MEL-28 melanoma = test system: SK-MEL-28 melanoma
SK-MEL-5 melanoma = test system: SK-MEL-5 melanoma
SK-OV-3 ovarian = test system: SK-OV-3 ovarian
UACC-257 melanoma = test system: UACC-257 melanoma
786-0 renal = test system: 786-0 renal
A498 renal = test system: A498 renal
ACHN renal = test system: ACHN renal
CAKI-1 renal = test system: CAKI-1 renal
CCRF-CEM leukemia = test system: CCRF-CEM leukemia
COLO 205 colon = test system: COLO 205 colon
EKVX NSCLC = test system: EKVX NSCLC
HCC-2998 colon = test system: HCC-2998 colon
HCT-116 colon = test system: HCT-116 colon
HCT-15 colon = test system: HCT-15 colon
HOP-62 NSCLC = test system: HOP-62 NSCLC
HS 578T breast = test system: HS 578T breast
HT29 colon = test system: HT29 colon
IGROV1 ovarian = test system: IGROV1 ovarian
K-562 leukemia = test system: K-562 leukemia
KM12 colon = test system: KM12 colon
LOX IMVI melanoma = test system: LOX IMVI melanoma
M14 melanoma = test system: M14 melanoma
MDA-MB-231 breast = test system: MDA-MB-231 breast
MDA-MB-435 = test system: MDA-MB-435
MOLT-4 leukemia = test system: MOLT-4 leukemia
NCI-H226 lung = test system: NCI-H226 lung
NCI-H23 lung = test system: NCI-H23 lung
NCI-H460 lung = test system: NCI-H460 lung
NCI-H522 lung = test system: NCI-H522 lung
OVCAR-3 ovarian = test system: OVCAR-3 ovarian
OVCAR-8 ovarian = test system: OVCAR-8 ovarian
PC-3 prostate = test system: PC-3 prostate
RPMI-8226 leukemia = test system: RPMI-8226 leukemia
SF-268 CNS = test system: SF-268 CNS
SF-295 CNS = test system: SF-295 CNS
SF-539 CNS = test system: SF-539 CNS
SN12C renal = test system: SN12C renal
SNB-19 CNS = test system: SNB-19 CNS
SNB-75 CNS = test system: SNB-75 CNS
SR leukemia = test system: SR leukemia
SW-620 colon = test system: SW-620 colon
T-47D breast = test system: T-47D breast
TK-10 renal = test system: TK-10 renal
U251 CNS = test system: U251 CNS
UO-31 renal = test system: UO-31 renal
A549 NSCLC = test system: A549 NSCLC
HL-60(TB) leukemia = test system: HL-60(TB) leukemia
MALME-3M melanoma = test system: MALME-3M melanoma
MCF7 breast = test system: MCF7 breast
RXF 393 renal = test system: RXF 393 renal
UACC-62 melanoma = test system: UACC-62 melanoma

For `CCCCCCCCCCCC[n+]1c(C)cc(N)c2ccccc21`, which GI50 (DU-145 prostate) is on record?
The GI50 was 0.67 µM.

What about the TGI (DU-145 prostate) of the same molecule?
The TGI was 1.97 µM.

What about the GI50 (HOP-92 NSCLC) of the same molecule?
Its GI50 is 0.167 µM.

And the TGI (HOP-92 NSCLC)?
The TGI was 1.19 µM.

And the GI50 (NCI/ADR-RES ovarian)?
Its GI50 is 3.18 µM.

And the TGI (NCI/ADR-RES ovarian)?
The TGI was greater than 100 µM.

And the GI50 (OVCAR-4 ovarian)?
Its GI50 is 0.327 µM.

And the TGI (OVCAR-4 ovarian)?
The TGI was 1.6 µM.

And the GI50 (OVCAR-5 ovarian)?
The GI50 was 1.57 µM.

And the TGI (OVCAR-5 ovarian)?
The TGI was 3.28 µM.

And the GI50 (SK-MEL-2 melanoma)?
The GI50 was 1.27 µM.

And the TGI (SK-MEL-2 melanoma)?
Its TGI is 2.72 µM.

What about the GI50 (SK-MEL-28 melanoma) of the same molecule?
The GI50 was 1.18 µM.

What about the TGI (SK-MEL-28 melanoma) of the same molecule?
The TGI was 2.47 µM.

And the GI50 (SK-MEL-5 melanoma)?
The GI50 was 0.364 µM.

What about the TGI (SK-MEL-5 melanoma) of the same molecule?
Its TGI is 1.4 µM.

What about the GI50 (SK-OV-3 ovarian) of the same molecule?
The GI50 was 1.13 µM.

And the TGI (SK-OV-3 ovarian)?
Its TGI is 2.36 µM.

What about the GI50 (UACC-257 melanoma) of the same molecule?
The GI50 was 0.249 µM.

And the TGI (UACC-257 melanoma)?
The TGI was 0.915 µM.

What does the source list for `Cc1cc(-c2no[n+]([O-])c2-c2cc(C)sc2S(C)(=O)=O)c(S(C)(=O)=O)s1`?
TGI (786-0 renal): > 100 µM; TGI (A498 renal): > 100 µM; TGI (ACHN renal): > 100 µM; TGI (CAKI-1 renal): > 100 µM; TGI (CCRF-CEM leukemia): > 100 µM; TGI (COLO 205 colon): > 100 µM; TGI (EKVX NSCLC): > 100 µM; TGI (HCC-2998 colon): > 100 µM; TGI (HCT-116 colon): > 100 µM; TGI (HCT-15 colon): > 100 µM; TGI (HOP-62 NSCLC): > 100 µM; TGI (HOP-92 NSCLC): > 100 µM; TGI (HS 578T breast): > 100 µM; TGI (HT29 colon): > 100 µM; TGI (IGROV1 ovarian): > 100 µM; TGI (K-562 leukemia): > 100 µM; TGI (KM12 colon): > 100 µM; TGI (LOX IMVI melanoma): > 100 µM; TGI (M14 melanoma): > 100 µM; TGI (MDA-MB-231 breast): > 100 µM; TGI (MDA-MB-435): > 100 µM; TGI (MOLT-4 leukemia): > 100 µM; TGI (NCI-H226 lung): > 100 µM; TGI (NCI-H23 lung): > 100 µM; TGI (NCI-H460 lung): > 100 µM; TGI (NCI-H522 lung): > 100 µM; TGI (NCI/ADR-RES ovarian): > 100 µM; TGI (OVCAR-3 ovarian): > 100 µM; TGI (OVCAR-4 ovarian): > 100 µM; TGI (OVCAR-5 ovarian): > 100 µM; TGI (OVCAR-8 ovarian): > 100 µM; TGI (PC-3 prostate): > 100 µM; TGI (RPMI-8226 leukemia): > 100 µM; TGI (SF-268 CNS): > 100 µM; TGI (SF-295 CNS): > 100 µM; TGI (SF-539 CNS): > 100 µM; TGI (SK-MEL-2 melanoma): > 100 µM; TGI (SK-MEL-28 melanoma): > 100 µM; TGI (SK-MEL-5 melanoma): > 100 µM; TGI (SK-OV-3 ovarian): > 100 µM; TGI (SN12C renal): > 100 µM; TGI (SNB-19 CNS): 75.1 µM; TGI (SNB-75 CNS): > 100 µM; TGI (SR leukemia): > 100 µM; TGI (SW-620 colon): > 100 µM; TGI (T-47D breast): > 100 µM; TGI (TK-10 renal): > 100 µM; TGI (U251 CNS): > 100 µM; TGI (UO-31 renal): > 100 µM

For `Cc1ccc(S(=O)(=O)NC(=O)Nc2ccc(C(=O)O)c(O)c2)cc1`, which TGI (786-0 renal) is on record?
The TGI was greater than 100 µM.

And the TGI (A498 renal)?
The TGI was greater than 100 µM.

What about the TGI (A549 NSCLC) of the same molecule?
The TGI was greater than 100 µM.

What about the TGI (ACHN renal) of the same molecule?
Its TGI is greater than 100 µM.

And the TGI (CAKI-1 renal)?
Its TGI is greater than 100 µM.

What about the TGI (CCRF-CEM leukemia) of the same molecule?
The TGI was greater than 100 µM.

What about the TGI (COLO 205 colon) of the same molecule?
The TGI was greater than 100 µM.

What about the TGI (DU-145 prostate) of the same molecule?
The TGI was greater than 100 µM.

What about the TGI (EKVX NSCLC) of the same molecule?
The TGI was greater than 100 µM.

What about the TGI (HCC-2998 colon) of the same molecule?
The TGI was greater than 100 µM.

What about the TGI (HCT-116 colon) of the same molecule?
Its TGI is greater than 100 µM.

What about the TGI (HCT-15 colon) of the same molecule?
Its TGI is greater than 100 µM.

And the TGI (HL-60(TB) leukemia)?
The TGI was greater than 100 µM.

What about the TGI (HOP-62 NSCLC) of the same molecule?
The TGI was greater than 100 µM.

And the TGI (HOP-92 NSCLC)?
Its TGI is greater than 100 µM.

And the TGI (HS 578T breast)?
The TGI was greater than 100 µM.

And the TGI (HT29 colon)?
Its TGI is greater than 100 µM.

And the TGI (K-562 leukemia)?
Its TGI is greater than 100 µM.

And the TGI (KM12 colon)?
The TGI was greater than 100 µM.

What about the TGI (LOX IMVI melanoma) of the same molecule?
The TGI was greater than 100 µM.

And the TGI (M14 melanoma)?
The TGI was greater than 100 µM.

What about the TGI (MALME-3M melanoma) of the same molecule?
The TGI was greater than 100 µM.

What about the TGI (MCF7 breast) of the same molecule?
Its TGI is greater than 100 µM.

And the TGI (MDA-MB-231 breast)?
Its TGI is greater than 100 µM.

And the TGI (MDA-MB-435)?
Its TGI is greater than 100 µM.

And the TGI (MOLT-4 leukemia)?
Its TGI is greater than 100 µM.

And the TGI (NCI-H226 lung)?
Its TGI is greater than 100 µM.

What about the TGI (NCI-H23 lung) of the same molecule?
The TGI was greater than 100 µM.

And the TGI (NCI-H460 lung)?
Its TGI is greater than 100 µM.

What about the TGI (NCI/ADR-RES ovarian) of the same molecule?
The TGI was greater than 100 µM.

What about the TGI (OVCAR-3 ovarian) of the same molecule?
Its TGI is greater than 100 µM.

What about the TGI (OVCAR-4 ovarian) of the same molecule?
The TGI was greater than 100 µM.

And the TGI (OVCAR-5 ovarian)?
Its TGI is greater than 100 µM.

What about the TGI (OVCAR-8 ovarian) of the same molecule?
Its TGI is greater than 100 µM.

And the TGI (PC-3 prostate)?
Its TGI is greater than 100 µM.

What about the TGI (RPMI-8226 leukemia) of the same molecule?
The TGI was greater than 100 µM.

And the TGI (RXF 393 renal)?
The TGI was greater than 100 µM.

And the TGI (SF-268 CNS)?
Its TGI is greater than 100 µM.

And the TGI (SF-295 CNS)?
Its TGI is greater than 100 µM.

What about the TGI (SF-539 CNS) of the same molecule?
Its TGI is greater than 100 µM.

What about the TGI (SK-MEL-2 melanoma) of the same molecule?
The TGI was greater than 100 µM.

What about the TGI (SK-MEL-5 melanoma) of the same molecule?
Its TGI is greater than 100 µM.

What about the TGI (SK-OV-3 ovarian) of the same molecule?
Its TGI is greater than 100 µM.

What about the TGI (SNB-19 CNS) of the same molecule?
The TGI was greater than 100 µM.

And the TGI (SNB-75 CNS)?
Its TGI is greater than 100 µM.

What about the TGI (SR leukemia) of the same molecule?
The TGI was greater than 100 µM.

And the TGI (SW-620 colon)?
The TGI was greater than 100 µM.

What about the TGI (TK-10 renal) of the same molecule?
The TGI was greater than 100 µM.

What about the TGI (U251 CNS) of the same molecule?
The TGI was greater than 100 µM.

What about the TGI (UACC-62 melanoma) of the same molecule?
The TGI was greater than 100 µM.

What about the TGI (UO-31 renal) of the same molecule?
The TGI was greater than 100 µM.
